Assay [1] can be described thus: Antiplatelet activity in human platelet rich plasma assessed as inhibition of collagen-induced platelet aggregation preincubated for 2 mins followed by collagen addition by two-channel platelet aggregometer. Format: functional.
For assay [2], the target named is T1, Phosphatidylinositol 4,5-bisphosphate 3-kinase catalytic subunit beta isoform (Homo sapiens, UniProt P42338). Description: Inhibition of p110beta (unknown origin) assessed as decrease in ATP consumption at 10 uM after 60 mins by Kinase-Glo assay relative to control. A general note: Kinase-Glo measures the ATP left after a reaction by luminescence.
Target sequence in this assay (P42338 whole entry, looked up, canonical isoform): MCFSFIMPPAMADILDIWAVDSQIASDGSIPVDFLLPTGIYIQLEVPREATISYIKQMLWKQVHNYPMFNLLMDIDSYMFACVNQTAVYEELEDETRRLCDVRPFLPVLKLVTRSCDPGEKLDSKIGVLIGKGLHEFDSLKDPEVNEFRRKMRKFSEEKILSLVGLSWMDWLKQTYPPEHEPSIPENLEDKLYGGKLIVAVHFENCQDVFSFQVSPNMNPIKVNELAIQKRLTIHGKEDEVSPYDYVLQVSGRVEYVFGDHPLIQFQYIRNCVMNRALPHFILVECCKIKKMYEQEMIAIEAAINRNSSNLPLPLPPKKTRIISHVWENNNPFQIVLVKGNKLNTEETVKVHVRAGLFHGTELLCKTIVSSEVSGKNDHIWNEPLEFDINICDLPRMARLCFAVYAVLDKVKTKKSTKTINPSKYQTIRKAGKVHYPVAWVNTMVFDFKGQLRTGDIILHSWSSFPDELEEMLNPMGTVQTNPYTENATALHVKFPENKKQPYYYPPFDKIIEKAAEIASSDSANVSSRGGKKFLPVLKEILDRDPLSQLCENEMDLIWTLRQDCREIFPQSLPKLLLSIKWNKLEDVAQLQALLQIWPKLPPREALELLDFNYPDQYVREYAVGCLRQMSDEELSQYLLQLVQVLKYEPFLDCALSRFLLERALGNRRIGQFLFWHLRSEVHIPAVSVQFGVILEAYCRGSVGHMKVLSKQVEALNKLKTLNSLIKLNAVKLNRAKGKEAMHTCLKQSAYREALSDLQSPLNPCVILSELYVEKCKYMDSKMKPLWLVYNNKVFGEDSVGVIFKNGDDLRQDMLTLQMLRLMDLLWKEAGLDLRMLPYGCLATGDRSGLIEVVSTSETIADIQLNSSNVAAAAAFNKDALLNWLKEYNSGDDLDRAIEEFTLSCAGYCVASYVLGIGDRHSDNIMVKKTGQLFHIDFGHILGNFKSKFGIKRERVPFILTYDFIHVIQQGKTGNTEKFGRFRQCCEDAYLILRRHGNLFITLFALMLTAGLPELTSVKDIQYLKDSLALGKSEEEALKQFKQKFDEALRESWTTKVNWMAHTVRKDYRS
For a further assay, the target named is DNA-PK/Ku70/Ku85 (Homo sapiens, UniProt P12956+P13010+P78527). Description: Inhibition of human DNA-PK/Ku70/Ku85 using EPPLSQEAFADLWKK as substrate by HTRF assay relative to control. In general terms: TR-FRET usually uses a lanthanide donor and a delayed reading to cut background.
For assay [3], the target named is T2, Phosphatidylinositol 4,5-bisphosphate 3-kinase catalytic subunit alpha isoform (Homo sapiens, UniProt P42336). As to the kind of experiment: Inhibition of p110alpha (unknown origin) assessed as decrease in ATP consumption at 10 uM after 60 mins by Kinase-Glo assay relative to control.
T2 sequence (P42336 whole entry, canonical isoform): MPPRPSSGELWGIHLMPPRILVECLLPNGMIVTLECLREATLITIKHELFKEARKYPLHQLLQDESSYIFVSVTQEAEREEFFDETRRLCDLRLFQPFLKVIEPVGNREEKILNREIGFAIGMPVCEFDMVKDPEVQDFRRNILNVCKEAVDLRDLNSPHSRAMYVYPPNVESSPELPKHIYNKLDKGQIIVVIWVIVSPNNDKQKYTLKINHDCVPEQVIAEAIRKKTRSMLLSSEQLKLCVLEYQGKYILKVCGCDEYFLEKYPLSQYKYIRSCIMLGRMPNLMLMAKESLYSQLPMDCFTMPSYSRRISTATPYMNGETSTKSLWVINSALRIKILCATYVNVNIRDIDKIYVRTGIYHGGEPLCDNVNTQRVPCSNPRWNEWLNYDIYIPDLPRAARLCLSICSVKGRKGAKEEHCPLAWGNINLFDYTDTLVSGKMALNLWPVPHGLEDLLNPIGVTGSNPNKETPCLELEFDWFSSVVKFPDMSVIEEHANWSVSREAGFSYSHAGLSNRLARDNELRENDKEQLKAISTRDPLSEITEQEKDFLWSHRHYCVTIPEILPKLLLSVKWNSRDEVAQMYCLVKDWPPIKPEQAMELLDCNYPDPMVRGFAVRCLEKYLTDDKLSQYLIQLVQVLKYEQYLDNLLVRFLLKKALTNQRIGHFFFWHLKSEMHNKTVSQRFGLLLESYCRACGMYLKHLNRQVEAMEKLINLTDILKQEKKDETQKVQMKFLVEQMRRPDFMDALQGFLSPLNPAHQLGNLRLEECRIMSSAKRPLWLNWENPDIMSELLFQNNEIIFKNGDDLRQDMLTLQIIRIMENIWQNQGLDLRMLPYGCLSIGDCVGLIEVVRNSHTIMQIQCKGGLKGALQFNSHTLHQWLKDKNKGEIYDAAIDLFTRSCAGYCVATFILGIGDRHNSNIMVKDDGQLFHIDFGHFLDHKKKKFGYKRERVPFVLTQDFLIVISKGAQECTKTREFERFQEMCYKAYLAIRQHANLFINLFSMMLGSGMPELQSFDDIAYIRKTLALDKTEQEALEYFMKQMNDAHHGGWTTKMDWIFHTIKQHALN
Assay [4] has as its target T3, Phosphatidylinositol 4,5-bisphosphate 3-kinase catalytic subunit delta isoform (Homo sapiens) (UniProt O00329).
T3 sequence (whole entry): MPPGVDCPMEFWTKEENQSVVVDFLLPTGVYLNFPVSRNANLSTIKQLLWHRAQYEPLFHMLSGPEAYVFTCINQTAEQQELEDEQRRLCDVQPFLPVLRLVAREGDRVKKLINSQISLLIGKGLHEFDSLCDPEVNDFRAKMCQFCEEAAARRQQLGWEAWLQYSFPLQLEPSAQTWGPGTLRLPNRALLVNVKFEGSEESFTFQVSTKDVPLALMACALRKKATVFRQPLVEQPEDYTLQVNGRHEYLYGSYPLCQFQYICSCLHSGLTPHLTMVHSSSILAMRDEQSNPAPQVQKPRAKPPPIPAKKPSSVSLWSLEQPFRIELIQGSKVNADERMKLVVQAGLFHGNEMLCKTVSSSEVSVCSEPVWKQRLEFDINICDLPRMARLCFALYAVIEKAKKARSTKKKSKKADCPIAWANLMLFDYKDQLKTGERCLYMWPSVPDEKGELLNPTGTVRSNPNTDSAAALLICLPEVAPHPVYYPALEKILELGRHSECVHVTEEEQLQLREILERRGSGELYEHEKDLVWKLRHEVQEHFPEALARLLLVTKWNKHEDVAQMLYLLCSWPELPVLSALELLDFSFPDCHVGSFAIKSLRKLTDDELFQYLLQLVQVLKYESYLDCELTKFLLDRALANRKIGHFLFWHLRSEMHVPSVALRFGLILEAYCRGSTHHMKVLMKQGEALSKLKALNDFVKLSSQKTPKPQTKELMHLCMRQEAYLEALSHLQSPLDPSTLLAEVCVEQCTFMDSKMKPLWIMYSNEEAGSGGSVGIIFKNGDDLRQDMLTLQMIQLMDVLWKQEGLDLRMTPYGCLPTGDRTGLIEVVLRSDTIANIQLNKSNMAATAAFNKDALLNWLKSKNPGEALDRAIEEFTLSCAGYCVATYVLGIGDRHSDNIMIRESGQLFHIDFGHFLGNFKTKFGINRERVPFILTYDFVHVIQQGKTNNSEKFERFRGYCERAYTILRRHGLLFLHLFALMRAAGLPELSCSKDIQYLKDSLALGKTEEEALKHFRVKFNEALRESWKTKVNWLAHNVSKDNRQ
As to the kind of experiment: Inhibition of p110delta (unknown origin) assessed as decrease in ATP consumption at 10 uM after 60 mins by Kinase-Glo assay relative to control.

In assay [5] the target is T4, Phosphatidylinositol 4,5-bisphosphate 3-kinase catalytic subunit gamma isoform (Homo sapiens, UniProt P48736). Description: Inhibition of p110gamma (unknown origin) assessed as decrease in ATP consumption at 10 uM after 60 mins by Kinase-Glo assay relative to control.
Target sequence in this assay (P48736 whole entry, looked up, canonical isoform): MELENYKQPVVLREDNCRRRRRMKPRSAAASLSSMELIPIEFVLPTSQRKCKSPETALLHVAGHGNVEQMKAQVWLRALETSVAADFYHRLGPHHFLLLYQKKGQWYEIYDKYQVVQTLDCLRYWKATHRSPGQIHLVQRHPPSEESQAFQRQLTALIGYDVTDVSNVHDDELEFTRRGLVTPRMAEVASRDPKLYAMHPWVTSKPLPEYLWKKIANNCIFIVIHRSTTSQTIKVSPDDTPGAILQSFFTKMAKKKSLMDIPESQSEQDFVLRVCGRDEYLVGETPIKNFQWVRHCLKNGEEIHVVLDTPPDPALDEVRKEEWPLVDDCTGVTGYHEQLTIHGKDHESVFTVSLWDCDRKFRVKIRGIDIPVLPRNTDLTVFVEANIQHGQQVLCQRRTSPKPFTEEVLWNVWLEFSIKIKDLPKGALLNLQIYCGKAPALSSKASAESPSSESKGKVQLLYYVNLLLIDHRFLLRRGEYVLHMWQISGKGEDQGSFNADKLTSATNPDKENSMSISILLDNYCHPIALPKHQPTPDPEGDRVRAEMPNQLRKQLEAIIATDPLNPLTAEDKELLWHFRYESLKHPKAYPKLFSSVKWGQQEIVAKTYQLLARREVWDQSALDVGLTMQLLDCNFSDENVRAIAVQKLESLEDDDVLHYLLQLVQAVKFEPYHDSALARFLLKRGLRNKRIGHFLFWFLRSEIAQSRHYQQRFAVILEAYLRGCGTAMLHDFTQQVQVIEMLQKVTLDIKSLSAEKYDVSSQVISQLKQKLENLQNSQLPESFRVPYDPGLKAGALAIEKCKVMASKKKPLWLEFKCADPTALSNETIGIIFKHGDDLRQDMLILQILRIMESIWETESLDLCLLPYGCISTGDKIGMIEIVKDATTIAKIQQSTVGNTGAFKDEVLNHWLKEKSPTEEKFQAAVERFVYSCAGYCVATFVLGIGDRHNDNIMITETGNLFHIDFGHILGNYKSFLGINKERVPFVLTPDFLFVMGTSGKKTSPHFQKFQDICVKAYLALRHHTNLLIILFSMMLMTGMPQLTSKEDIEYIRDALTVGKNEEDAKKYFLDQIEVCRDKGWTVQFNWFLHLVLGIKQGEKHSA
Assay [6] has as its target cGMP-inhibited 3',5'-cyclic phosphodiesterase 3A (Homo sapiens) (UniProt Q14432). As to the kind of experiment: Inhibition of PDE3A (unknown origin) at 10 uM relative to control.
The target of assay [7] is DNA-PK/Ku70/Ku85 (Homo sapiens) (UniProt P78527+P12956+P13010). As to the kind of experiment: Inhibition of human DNA-PK/Ku70/Ku85 at 10 uM using EPPLSQEAFADLWKK as substrate by HTRF assay relative to control.
Assay [8] deals with T4, Phosphatidylinositol 4,5-bisphosphate 3-kinase catalytic subunit gamma isoform. As to the kind of experiment: Inhibition of p110gamma (unknown origin) assessed as decrease in ATP consumption after 60 mins by Kinase-Glo assay.
Target sequence in this assay (P48736 whole entry, canonical isoform): as the sequence (P48736 whole entry, looked up, canonical isoform) above
The target of assay [9] is T1, Phosphatidylinositol 4,5-bisphosphate 3-kinase catalytic subunit beta isoform. As to the kind of experiment: Inhibition of p110beta (unknown origin) assessed as decrease in ATP consumption after 60 mins by Kinase-Glo assay.
Target sequence in this assay (P42338 whole entry, canonical isoform): as the sequence (P42338 whole entry, looked up, canonical isoform) above
Assay [10] deals with T2, Phosphatidylinositol 4,5-bisphosphate 3-kinase catalytic subunit alpha isoform. As to the kind of experiment: Inhibition of p110alpha (unknown origin) assessed as decrease in ATP consumption after 60 mins by Kinase-Glo assay.
Assay [11] has as its target T5, Phosphatidylinositol 4,5-bisphosphate 3-kinase catalytic subunit delta isoform (Homo sapiens, UniProt O00329).
T5 sequence (O00329 whole entry): T3 sequence (whole entry)
Description: Inhibition of p110delta (unknown origin) assessed as decrease in ATP consumption after 60 mins by Kinase-Glo assay.

Results on 23 compounds are retold here after ChEMBL document CHEMBL3864148, “Synthesis of linear and angular aryl-morpholino-naphth-oxazines, their DNA-PK, PI3K, PDE3A and antiplatelet activity” (Bioorg Med Chem Lett, 2016).

cGMP-inhibited 3',5'-cyclic phosphodiesterase 3A (Homo sapiens), sequence (Q14432 whole entry): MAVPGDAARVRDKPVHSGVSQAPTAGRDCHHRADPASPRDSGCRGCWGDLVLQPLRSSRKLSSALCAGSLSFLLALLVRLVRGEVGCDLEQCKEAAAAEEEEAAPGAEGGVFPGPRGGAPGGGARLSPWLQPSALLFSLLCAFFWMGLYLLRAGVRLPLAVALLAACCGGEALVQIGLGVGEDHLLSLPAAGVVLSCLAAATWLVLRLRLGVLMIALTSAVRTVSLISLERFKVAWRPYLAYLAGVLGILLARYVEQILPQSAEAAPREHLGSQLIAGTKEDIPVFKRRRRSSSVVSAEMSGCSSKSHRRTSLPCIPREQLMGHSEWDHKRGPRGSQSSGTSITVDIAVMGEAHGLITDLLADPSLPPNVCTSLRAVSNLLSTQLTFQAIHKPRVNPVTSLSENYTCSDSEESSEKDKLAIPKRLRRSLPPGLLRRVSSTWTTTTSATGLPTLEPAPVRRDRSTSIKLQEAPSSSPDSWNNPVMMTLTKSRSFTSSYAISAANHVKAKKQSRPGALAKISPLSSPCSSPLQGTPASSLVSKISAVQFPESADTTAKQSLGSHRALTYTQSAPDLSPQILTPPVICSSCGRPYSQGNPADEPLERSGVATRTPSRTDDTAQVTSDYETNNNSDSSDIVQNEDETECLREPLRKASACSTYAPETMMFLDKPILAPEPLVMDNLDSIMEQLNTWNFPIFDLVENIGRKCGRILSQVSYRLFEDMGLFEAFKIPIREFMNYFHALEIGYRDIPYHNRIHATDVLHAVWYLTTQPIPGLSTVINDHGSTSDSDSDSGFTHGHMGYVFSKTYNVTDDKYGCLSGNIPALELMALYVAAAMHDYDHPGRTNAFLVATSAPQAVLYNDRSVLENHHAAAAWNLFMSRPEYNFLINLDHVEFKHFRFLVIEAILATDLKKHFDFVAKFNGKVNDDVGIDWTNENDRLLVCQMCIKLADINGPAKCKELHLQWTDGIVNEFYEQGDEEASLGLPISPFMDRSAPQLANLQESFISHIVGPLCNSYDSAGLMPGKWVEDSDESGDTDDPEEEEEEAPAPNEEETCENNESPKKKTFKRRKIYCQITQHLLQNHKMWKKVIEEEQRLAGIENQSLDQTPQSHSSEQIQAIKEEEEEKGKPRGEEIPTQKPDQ

As for `O=c1nc(N2CCOCC2)oc2c1ccc1ccccc12`, the IC50 (commonly the point on the concentration scale where inhibition reaches its midpoint) is over 80 µM in assay [1] and 10 µM against DNA-PK/Ku70/Ku85. Also, the inhibition (commonly the drop in the measured response relative to a control, in per cent) was determined as 15% in assay [2], 22% in assay [3], 12% in assay [4] and 4% in assay [5].

As to `O=c1nc(N2CCOCC2)oc2c1cc(-c1ccc(Cl)cc1)c1ccccc12`, the inhibition in assay [6] came to 1%; in [7], 11%.

Regarding `COc1ccc(-c2ccc3c(ccc4oc(N5CCOCC5)nc(=O)c43)c2)cc1`, the inhibition is 18% in assay [6]; 0% in assay [2]; 0% in [3]; 0% in assay [4]; -2% in assay [5].

For the compound `O=c1nc(N2CCOCC2)oc2ccc3cc(-c4cccc5c4oc4ccccc45)ccc3c12`, the inhibition in [6] was 12%; in assay [7], 0%.

Regarding `O=c1nc(N2CCOCC2)oc2c1cc(-c1ccsc1)c1ccccc12`, the inhibition in [6] and in [7] was 22% throughout.

As to `O=c1nc(N2CCOCC2)oc2c1cc(-c1ccccc1)c1ccccc12`, the inhibition in assay [6] is 15%; in [2], 10%; in assay [3] it was 35%; in assay [4], 3%; in [5] it was 34%; in assay [7] it was 22%. For the same compound, the IC50 in assay [1] came out at 3 µM.

As for `Nc1cccc(-c2cc3c(=O)nc(N4CCOCC4)oc3c3ccccc23)c1`, the inhibition in assay [6] is -3%.

On to `O=c1nc(N2CCOCC2)oc2c1cc(-c1cccs1)c1ccccc12`, for which the results for the inhibition in assay [6] and in [7] were 32% and 34%, respectively.

As for `O=c1nc(N2CCOCC2)oc2c1cc(-c1cccc3c1sc1ccccc13)c1ccccc12`, the inhibition was determined as 30% in [6]; 11% in [2]; 23% in assay [3]; 0% in [4]; 12% in assay [5]; 0% in assay [7]. In assay [1], the half-maximal inhibitory concentration (IC50) turned out to be 5 µM.

Take `O=c1nc(N2CCOCC2)oc2ccc3cc(-c4cccc5c4sc4ccccc45)ccc3c12`: the inhibition was 5% in assay [6] and 0% in assay [7].

As to `NC(=O)c1ccc(-c2cc3c(=O)nc(N4CCOCC4)oc3c3ccccc23)cc1`, the inhibition in assay [6] was found to be 7%; in assay [7], 10%.

`O=c1nc(N2CCOCC2)oc2c(-c3ccccc3)c3ccccc3cc12`: the inhibition in [6] came to 32%. Moreover, the IC50 in [1] was over 80 µM; at DNA-PK/Ku70/Ku85 it was 78.1 µM; in assay [8], over 50 µM; in assay [9], over 50 µM; in assay [10], 43.8 µM; in assay [11], 7.7 µM.

With `O=c1nc(N2CCOCC2)oc2c1cc(-c1ccc(CO)cc1)c1ccccc12`, the inhibition in [6] came out at 35%.

As for `COc1ccc(-c2cc3c(=O)nc(N4CCOCC4)oc3c3ccccc23)cc1`, the inhibition turned out to be 26% in assay [6]; 42% in assay [2]; 20% in assay [3]; 9% in assay [4]; 17% in [5]; 19% in assay [7]. Besides, in assay [1], the IC50 was 14 µM.

As to `COc1ccc(-c2c3ccccc3cc3c(=O)nc(N4CCOCC4)oc23)cc1`, the inhibition in assay [6] was 6%. Also, the IC50 in assay [1] is over 80 µM; on DNA-PK/Ku70/Ku85, 11.9 µM; in [8], over 50 µM; in assay [9] it was over 50 µM; in assay [10], over 50 µM; in assay [11], 5.6 µM.

For `O=c1nc(N2CCOCC2)oc2c(-c3ccc(Cl)cc3)c3ccccc3cc12`, the inhibition in assay [6] came to 24%; in assay [2], 0%; in [3], 8%; in [4], 52%; in assay [5] it was 3%. Moreover, the IC50 is over 80 µM in assay [1] and over 100 µM at DNA-PK/Ku70/Ku85.

`O=c1nc(N2CCOCC2)oc2c1cc(-c1cccc3c1oc1ccccc13)c1ccccc12`: the inhibition was found to be 11% in assay [6]; 22% in [2]; 9% in [3]; 0% in [4]; 24% in assay [5]; 24% in assay [7]. In [1], the IC50 came out at 2 µM.

With `O=c1nc(N2CCOCC2)oc2c1cc(/C=C/c1ccccc1)c1ccccc12`, the values for the inhibition in [6] and in assay [7] were 18% and 5.9%, respectively.

`O=c1nc(N2CCOCC2)oc2ccc3cc(-c4ccccc4)ccc3c12`: the inhibition was 13% in assay [6]; -3% in assay [2]; -2% in [3]; -1% in [4]; 1% in assay [5]; 0% in assay [7].

For `O=c1nc(N2CCOCC2)oc2cc3ccccc3cc12`, in assay [4], the inhibition is -10%.

In the case of `O=c1nc(N2CCOCC2)oc2c1cc(-c1cccc3ccccc13)c1ccccc12`, the inhibition in assay [6] worked out at 26%; in [7], 10%.

In the case of `O=c1nc(N2CCOCC2)oc2ccc3ccccc3c12`, the IC50 in [1] is over 80 µM; at DNA-PK/Ku70/Ku85 it was 38.8 µM. Further, the inhibition in assay [2] turned out to be 23%; in assay [3], 4%; in assay [4], 8%; in assay [5] it was 2%.

Turning to `O=c1nc(N2CCOCC2)oc2ccc3cc(-c4ccc(Cl)cc4)ccc3c12`, the inhibition in assay [6] is -4%; in assay [2] it was -1%; in assay [3] it was -5%; in assay [4] it was -1%; in assay [5], 0%; in [7], 8.1%.
